Reference: US11357230B2, “Herbicidal amides” (FMC Corporation, priority 2017, dated 2022)

What was measured:
Type in all cases: in vivo
[1] = system: ryegrass, Italian (Italian ryegrass, Lolium multiflorum); assay: Test A preemergence, Italian ryegrass; details: approximately 10 d
How it was run: (§1)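 Seeds in a loam soil–sand blend got a directed preemergence soil spray, and plants in the same blend at 2–10 cm (one- to two-leaf stage) got a postemergence spray, using chemicals in a non-phytotoxic solvent mixture with surfactant. After about 10 d in a greenhouse, injury was scored visually versus untreated controls on a 0–100 scale.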

[2] = system: ragweed (common ragweed, Ambrosia elatior); assay: Test A postemergence, ragweed; details: approximately 10 d
How it was run: (§2)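 Compounds were applied before emergence to seeded pots of loam and sand, or after emergence to plants 2 to 10 cm tall in the same soil. Injury was rated visually about 10 d later relative to untreated controls, where 100 indicates complete control.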

[3] = system: barnyardgrass (Echinochloa crus-galli); assay: Test A postemergence, barnyardgrass; details: approximately 10 d
How it was run: as §2

[4] = system: barnyardgrass (Echinochloa crus-galli); assay: Test B flooded paddy test, barnyardgrass; details: 250 g ai/ha, Flood (paddy water), 13 to 15 d
How it was run: (§3)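 Plants at the 2-leaf stage were flooded to 3 cm above soil, and test compounds were applied directly into the paddy water, which was held at that depth throughout. After 13 to 15 d in a greenhouse, injury was rated visually against untreated controls on a 0–100 scale (0 no effect, 100 complete control).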

[5] = system: barnyardgrass (Echinochloa crus-galli); assay: Test A preemergence, barnyardgrass; details: approximately 10 d
How it was run: as §1

[6] = system: ryegrass, Italian (Italian ryegrass, Lolium multiflorum); assay: Test A postemergence, Italian ryegrass; details: approximately 10 d
How it was run: as §2

[7] = system: sedge, umbrella (small-flower umbrella sedge, Cyperus difformis); assay: Test B flooded paddy test, umbrella sedge; details: 250 g ai/ha, Flood (paddy water), 13 to 15 d
How it was run: as §3

[8] = system: ragweed (common ragweed, Ambrosia elatior); assay: Test A preemergence, ragweed; details: approximately 10 d
How it was run: as §1

kochia (Kochia scoparia) [9] = assay: Test A postemergence, kochia; details: approximately 10 d
How it was run: as §2

[10] = system: pigweed (Amaranthus retroflexus); assay: Test A preemergence, pigweed; details: approximately 10 d
How it was run: as §1

[11] = system: wheat (Triticum aestivum); assay: Test A postemergence, wheat; details: approximately 10 d
How it was run: as §2

kochia (Kochia scoparia) [12] = assay: Test A preemergence, kochia; details: approximately 10 d
How it was run: as §1

[13] = system: blackgrass (Alopecurus myosuroides); assay: Test A postemergence, blackgrass; details: approximately 10 d
How it was run: as §2

[14] = system: galium (catchweed bedstraw, Galium aparine); assay: Test A postemergence, galium; details: approximately 10 d
How it was run: as §2

rice (Oryza sativa) = assay: Test B flooded paddy test, rice; details: 250 g ai/ha, Flood (paddy water), 13 to 15 d
How it was run: as §3

[15] = system: foxtail, green (green foxtail, Setaria viridis); assay: Test A postemergence, green foxtail; details: approximately 10 d
Source text: (§4) Seeds of plant species selected from barnyardgrass (Echinochloa crus-galli), kochia (Kochia scoparia), ragweed (common ragweed, Ambrosia elatior), ryegrass, Italian (Italian ryegrass, Lolium multiflorum), foxtail, green (green foxtail, Setaria viridis), and pigweed (Amaranthus retroflexus) were planted into a blend of loam soil and sand and treated preemergence with a directed soil spray using test chemicals formulated in a non-phytotoxic solvent mixture which included a surfactant. At the same time, plants selected from these weed species and also wheat (Triticum aestivum), corn (Zea mays), blackgrass (Alopecurus myosuroides), and galium (catchweed bedstraw, Galium aparine) were planted in pots containing the same blend of loam soil and sand and treated with postemergence applications of test chemicals formulated in the same manner. Plants ranged in height from 2 to 10 cm and were in the one- to two-leaf stage for the postemergence treatment. Treated plants and untreated controls were maintained in a greenhouse for approximately 10 d, after which time all treated plants were compared to untreated controls and visually evaluated for injury. Plant response ratings, summarized in Table A, are based on a 0 to 100 scale where 0 is no effect and 100 is complete control. A dash (-) response means no test result.

[16] = system: ducksalad (Heteranthera limosa); assay: Test B flooded paddy test, ducksalad; details: 250 g ai/ha, Flood (paddy water), 13 to 15 d
How it was run: as §3

[17] = system: pigweed (Amaranthus retroflexus); assay: Test A postemergence, pigweed; details: approximately 10 d
How it was run: as §2

corn (Zea mays) = assay: Test A postemergence, corn; details: approximately 10 d
How it was run: as §2

[18] = system: foxtail, green (green foxtail, Setaria viridis); assay: Test A preemergence, green foxtail; details: approximately 10 d
Source text: as §4

CN1C[C@H](c2ccc(C(F)(F)F)cc2)[C@@H](C(=O)Nc2cccc(F)c2F)C1=NN [Compound 2, (3R,4S)—N-(2,3-difluorophenyl)-2-hydrazinylidene-1-methyl-4-[4-(trifluoromethyl)phenyl]-3-pyrrolidinecarboxamide]
Plant response rating (0 to 100 scale, 0 is no effect, 100 is complete control) ([1]; 31 g ai/ha): 0
Plant response rating (0 to 100 scale, 0 is no effect, 100 is complete control) ([1]; 125 g ai/ha): 0
Plant response rating (0 to 100 scale, 0 is no effect, 100 is complete control) ([2]; 31 g ai/ha): 0
Plant response rating (0 to 100 scale, 0 is no effect, 100 is complete control) ([2]; 125 g ai/ha): 0
Plant response rating (0 to 100 scale, 0 is no effect, 100 is complete control) ([3]; 31 g ai/ha): 20
Plant response rating (0 to 100 scale, 0 is no effect, 100 is complete control) ([3]; 125 g ai/ha): 60
Plant response rating (scale of 0 to 100, 0 is no effect, 100 is complete control) [4]: 40
Plant response rating (0 to 100 scale, 0 is no effect, 100 is complete control) ([5]; 31 g ai/ha): 70
Plant response rating (0 to 100 scale, 0 is no effect, 100 is complete control) ([5]; 125 g ai/ha): 90
Plant response rating (0 to 100 scale, 0 is no effect, 100 is complete control) ([6]; 31 g ai/ha): 0
Plant response rating (0 to 100 scale, 0 is no effect, 100 is complete control) ([6]; 125 g ai/ha): 30
Plant response rating (scale of 0 to 100, 0 is no effect, 100 is complete control) [7]: 50
Plant response rating (0 to 100 scale, 0 is no effect, 100 is complete control) ([8]; 31 g ai/ha): 0
Plant response rating (0 to 100 scale, 0 is no effect, 100 is complete control) ([8]; 125 g ai/ha): 40
Plant response rating (0 to 100 scale, 0 is no effect, 100 is complete control) (kochia (Kochia scoparia) [9]; 31 g ai/ha): 0
Plant response rating (0 to 100 scale, 0 is no effect, 100 is complete control) (kochia (Kochia scoparia) [9]; 125 g ai/ha): 0
Plant response rating (0 to 100 scale, 0 is no effect, 100 is complete control) ([10]; 31 g ai/ha): 0
Plant response rating (0 to 100 scale, 0 is no effect, 100 is complete control) ([10]; 125 g ai/ha): 80
Plant response rating (0 to 100 scale, 0 is no effect, 100 is complete control) ([11]; 31 g ai/ha): 0
Plant response rating (0 to 100 scale, 0 is no effect, 100 is complete control) ([11]; 125 g ai/ha): 0
Plant response rating (0 to 100 scale, 0 is no effect, 100 is complete control) (kochia (Kochia scoparia) [12]; 31 g ai/ha): 0
Plant response rating (0 to 100 scale, 0 is no effect, 100 is complete control) (kochia (Kochia scoparia) [12]; 125 g ai/ha): 60
Plant response rating (0 to 100 scale, 0 is no effect, 100 is complete control) ([13]; 31 g ai/ha): 0
Plant response rating (0 to 100 scale, 0 is no effect, 100 is complete control) ([13]; 125 g ai/ha): 30
Plant response rating (0 to 100 scale, 0 is no effect, 100 is complete control) ([14]; 31 g ai/ha): 60
Plant response rating (0 to 100 scale, 0 is no effect, 100 is complete control) ([14]; 125 g ai/ha): 60
Plant response rating (scale of 0 to 100, 0 is no effect, 100 is complete control) (rice (Oryza sativa)): 0
Plant response rating (0 to 100 scale, 0 is no effect, 100 is complete control) ([15]; 31 g ai/ha): 30
Plant response rating (0 to 100 scale, 0 is no effect, 100 is complete control) ([15]; 125 g ai/ha): 70
Plant response rating (scale of 0 to 100, 0 is no effect, 100 is complete control) [16]: 0
Plant response rating (0 to 100 scale, 0 is no effect, 100 is complete control) ([17]; 31 g ai/ha): 0
Plant response rating (0 to 100 scale, 0 is no effect, 100 is complete control) ([17]; 125 g ai/ha): 40
Plant response rating (0 to 100 scale, 0 is no effect, 100 is complete control) (corn (Zea mays); 31 g ai/ha): 10
Plant response rating (0 to 100 scale, 0 is no effect, 100 is complete control) (corn (Zea mays); 125 g ai/ha): 10
Plant response rating (0 to 100 scale, 0 is no effect, 100 is complete control) ([18]; 31 g ai/ha): 70
Plant response rating (0 to 100 scale, 0 is no effect, 100 is complete control) ([18]; 125 g ai/ha): 100
